Data as given in article PMC9482650, “Quantitative fragmentomics allow affinity mapping of interactomes” (Nature Communications, 2022).
Where two headings read alike, the source gives them in different places. Numbered stars: 1 amine (or outer) side, 2 acyl side, 3 side chain; on linkers, the order of the positions; unused ones are H or OH. Ends that are not written are not given here. Peptide text beside a SMILES is read from it. * marks the point of attachment. X1 = O=C(CCCC[C@@H]1SC[C@@H]2NC(=O)N[C@@H]21)NCCCOCCOCCOCCCN*; Suc = O=C(CCC(=O)[*:2])[*:1]

Experiments:
HaCat cell extract preys = assay: PDZ-AP-MS, biotinylated MBP-PDZ baits; type: binding, human; conditions: for Difference log2: enrichment of prey
Method: (§1) For PDZ-AP-MS experiments, PDZ domains were cloned as His6-AviTag-MBP-PDZ constructs. For co-expression with BirA, E. coli BL21(DE3) cells were co-transformed with His6-AviTag-MBP, or His6-AviTag-MBP-PDZ-coding and PET21a-BirA (Addgene #20857) plasmids. Simultaneously to IPTG induction, 50 µM biotin was added to the media. After cell harvesting, the lysis buffer was also supplemented with 50 µM biotin. Otherwise, expression and double affinity purification was identical as previously described in details.
(§2) For PBM-AP-MS experiments, 30 μl streptavidin resin was mixed with biotin or peptide at 50–60 μM concentration in 6–6.5 resin volume for 60 min to achieve resin saturation. For PDZ-AP-MS experiments, 30 μl streptavidin resin was mixed with biotinylated MBP or MBP-PDZ at 40-50 μM concentration in >1000× resin volume for 60 min to achieve resin saturation. After saturation, resins were washed a single time (ten resin volume, holdup buffer), and were depleted with biotin (1 mM biotin, 5–10 resin volume, 10 min). Finally, resins were washed two times. 0.5 ml 2 mg/ml cell lysate was added to the dry resin (1 mg total input) and were incubated at 4 °C for 2 h. Then, the beads were washed three times with 10 resin volume buffer containing: 50 mM TRIS pH 8.5, 150 mM NaCl, 1% TritonX-100, 10× complete EDTA-free protease inhibitor cocktail, 2 mM EDTA, 1 mM TCEP. Then, the beads were washed two times with ten resin volume buffer containing: 50 mM TRIS pH 8.5, 150 mM NaCl, 1 mM TCEP. Finally, captured protein was eluted from the resin in two steps and the eluted fractions were pooled. For each elution the beads were incubated for 30 min with three resin volume buffer containing: 20 mM TRIS pH8.5, 100 mM NaCl, 500 μM TCEP, 8 M Urea. Between each step, the beads were separated by mild centrifugation and the supernatant was removed by gentle pipetting.
(§3) The samples were precipitated with TCA 20% overnight at 4 °C and centrifuged at 14,000 rpm for 10 min at 4 °C. The protein pellets were washed twice with 1 mL cold acetone and air dried. The protein extracts were solubilized in urea 8 M, reduced with 5 mM TCEP for 30 min, and alkylated with 10 mM iodoacetamide for 30 min in the dark. Double digestion was performed at 37 °C with 500 ng endoproteinase Lys-C for 4 h, followed by fourfold dilution and an overnight digestion with 500 ng trypsin. Peptide mixtures were then desalted on C18 spin-column and dried on Speed-Vacuum.
(§4) Samples were analyzed using an Ultimate 3000 nano-RSLC (Thermo Scientific, San Jose California) coupled in line with a LTQ-Orbitrap ELITE mass spectrometer via a nano-electrospray ionization source (Thermo Scientific, San Jose California). Peptide mixtures were injected in 0.1% TFA on a C18 Acclaim PepMap100 trap-column (75 µm ID × 2 cm, 3 µm, 100 Å, Thermo Fisher Scientific) for 3 min at 5 µL/min with 2% ACN, 0.1% FA in H2O and then separated on a C18 Accucore nano-column (75 µm ID × 50 cm, 2.6 µm, 150 Å, Thermo Fisher Scientific) at 220 nl/min and 38 °C with a 90 min linear gradient from 5% to 30% buffer B (A: 0.1% FA in H2O/B: 99% ACN, 0.1% FA in H2O), regeneration at 5% B. The mass spectrometer was operated in positive ionization mode, in data-dependent mode with survey scans from m/z 350–1500 acquired in the Orbitrap at a resolution of 120,000 at m/z 400. The 20 most intense peaks from survey scans were selected for further fragmentation in the Linear Ion Trap with an isolation window of 2.0 Da and were fragmented by CID with normalized collision energy of 35%. (TOP20CID method) Unassigned and single charged states were excluded from fragmentation. The Ion Target Value for the survey scans (in the Orbitrap) and the MS2 mode (in the Linear Ion Trap) were set to 1E6 and 5E3 respectively and the maximum injection time was set to 100 ms for both scan modes. Dynamic exclusion was set to 20 s after one repeat count with mass width at ±10 ppm. […]

TX1BP3 PDZ = target: T1, TX1BP3 PDZ (Homo sapiens, UniProt O14907); assay: Holdup assay; type: binding
T1 sequence (O14907 15-112 limits assumed): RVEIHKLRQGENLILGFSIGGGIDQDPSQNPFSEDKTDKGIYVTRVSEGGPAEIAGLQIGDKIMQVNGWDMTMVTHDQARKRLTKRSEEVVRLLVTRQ

SCRIB2 PDZ = target: T2, SCRIB2 PDZ (Homo sapiens, UniProt Q14160); assay: Holdup assay; type: binding
T2 sequence (Q14160 862-950 limits assumed): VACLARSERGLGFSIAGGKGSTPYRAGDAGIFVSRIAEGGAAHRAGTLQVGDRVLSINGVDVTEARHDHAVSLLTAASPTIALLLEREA

DLG1_1 PDZ = DLG1_1 PDZ (Homo sapiens, UniProt Q12959); assay: Holdup assay; type: binding
SNX27 PDZ = SNX27 PDZ (Homo sapiens, UniProt Q96L92); assay: Holdup assay; type: binding
SCRIB_1 PDZ = SCRIB_1 PDZ (Homo sapiens, UniProt Q14160); assay: Holdup assay; type: binding
SCRIB_1 PDZ, sequence (Q14160 728-815 limits assumed): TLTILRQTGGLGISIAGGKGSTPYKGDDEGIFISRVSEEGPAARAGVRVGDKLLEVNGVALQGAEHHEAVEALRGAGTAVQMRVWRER

DLG1_2 PDZ = DLG1_2 PDZ (Homo sapiens, UniProt Q12959); assay: Holdup assay; type: binding
SYNJ2BP PDZ = target: T3, SYNJ2BP PDZ (Homo sapiens, UniProt P57105); assay: Holdup assay; type: binding
T3 sequence (P57105 13-100 limits assumed): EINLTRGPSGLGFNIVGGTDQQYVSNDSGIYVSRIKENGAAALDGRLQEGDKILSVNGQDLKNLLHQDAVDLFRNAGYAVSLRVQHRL

HeLa cell extract preys = assay: PDZ-AP-MS, biotinylated MBP-PDZ baits; type: binding, human; conditions: for Ratio: fold enrichment of prey; for Difference: log2 enrichment of prey
Method: as §1, §2, §3, §4

[1] = system: Jurkat cell extract preys; assay: PDZ-AP-MS, biotinylated MBP-PDZ baits; type: binding, human; conditions: for Difference log2: enrichment of prey
Method: as §1, §2, §3, §4

MAGI2_2 PDZ = MAGI2_2 PDZ (Homo sapiens, UniProt Q86UL8); assay: Competitive fluorescence polarization (FP) assay; type: binding; conditions: read-out: pKd FP (converted)
MAGI2_2 PDZ, sequence (Q86UL8 426-510 limits assumed): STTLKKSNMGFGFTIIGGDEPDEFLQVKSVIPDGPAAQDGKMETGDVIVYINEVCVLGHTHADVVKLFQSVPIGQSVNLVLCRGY

DLG4_3 PDZ = DLG4_3 PDZ (Homo sapiens, UniProt P78352); assay: Competitive fluorescence polarization (FP) assay; type: binding; conditions: read-out: pKd FP (converted)
DLG4_3 PDZ, sequence (P78352 313-393 limits assumed): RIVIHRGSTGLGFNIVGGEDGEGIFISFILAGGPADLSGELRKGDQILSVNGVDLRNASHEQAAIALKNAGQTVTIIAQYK

[2] = bait SCRIB_2 PDZ, fold change of prey
[3] = PBM motif of the named protein vs TX1BP3 PDZ, read-out: pKd values – domain-motif, TX1BP3 (converted)
[4] = PBM motif of the named protein vs SCRIB_2 PDZ, read-out: pKd values – domain-motif, SCRIB_2 (converted)
[5] = PBM motif of the named protein vs DLG1_1 PDZ, read-out: pKd values – domain-motif, DLG1_1 (converted)
[6] = PBM motif of the named protein vs SCRIB_1 PDZ, read-out: pKd values – domain-motif, SCRIB_1 (converted)
[7] = PBM motif of the named protein vs DLG1_2 PDZ, read-out: pKd values – domain-motif, DLG1_2 (converted)
[8] = holdup affinity of the PBM peptide of the named protein, sheet PBMcomplexome, lower sub-table
[9] = holdup affinity of the PBM peptide of the named protein, sheet PBMcomplexome, lower sub-table, 3.5 appears to be the floor for no detectable binding, read-out: affinity of PBM to DLG1_2 (pKd) (converted)
[10] = holdup affinity of the PBM peptide of the named protein, sheet PBMcomplexome, lower sub-table, 3.5 appears to be the floor for no detectable binding, read-out: affinity of PBM to TX1BP3 (pKd) (converted)
[11] = bait SCRIB_1 PDZ, fold change of prey

EPRS1
Difference log2 (HaCat cell extract preys; bait SCRIB_2 PDZ vs MBP): 4.198 | Ratio SCRIB_2/MBP (HaCat cell extract preys; [2]): 18.3552

LSEFKAMDSI [CTNNA1]
Kd (TX1BP3 PDZ; [3]): 339 µM

ATKDKKITTV [EXOC4]
Kd (SCRIB2 PDZ; [4]): 324 µM | Kd (DLG1_1 PDZ; [5]): 8.91 µM | Kd (SNX27 PDZ): 41.7 µM | Kd (SCRIB_1 PDZ; [6]): 141 µM | Kd (DLG1_2 PDZ; [7]): 1.23 µM | Kd (TX1BP3 PDZ; [3]): 123 µM

GFGEERESIL [KIDINS220]
Kd (SNX27 PDZ; [8]): 2.57 µM | Kd (DLG1_2 PDZ; [9]): 132 µM | Kd (TX1BP3 PDZ; [10]): 186 µM

SEKHFRETEV [HTLV1 Tax1]
Kd (SYNJ2BP PDZ): 0.912 µM

SRPHTNETSL [MCC]
Kd (SCRIB2 PDZ; [4]): 52.5 µM | Kd (DLG1_1 PDZ; [5]): 191 µM | Kd (SNX27 PDZ): 1.91 µM | Kd (SCRIB_1 PDZ; [6]): 5.5 µM | Kd (DLG1_2 PDZ; [7]): 64.6 µM | Kd (TX1BP3 PDZ; [3]): 75.9 µM

TVASEKESVM [SLC1A5]
Kd (SNX27 PDZ): 5.13 µM | Kd (SCRIB_1 PDZ; [6]): 6.31 µM | Kd (TX1BP3 PDZ; [3]): 204 µM

KKYVDAETSL [SLC4A7]
Kd (SCRIB2 PDZ; [4]): 170 µM | Kd (SNX27 PDZ): 1.95 µM | Kd (SCRIB_1 PDZ; [6]): 2.88 µM | Kd (DLG1_2 PDZ; [7]): 275 µM | Kd (TX1BP3 PDZ; [3]): 151 µM

QRQARSETLV [HPV59E6]
Kd (SYNJ2BP PDZ): 15.4 µM

PLEC
Ratio (HeLa cell extract preys; bait TX1BP3 PDZ vs MBP control): 24.4238 | Difference (HeLa cell extract preys; bait TX1BP3 PDZ vs MBP control): 4.61

QPRTWLQSPV [RTKN]
Kd (DLG1_1 PDZ; [5]): 182 µM | Kd (SNX27 PDZ): 49 µM | Kd (SCRIB_1 PDZ; [6]): 204 µM | Kd (DLG1_2 PDZ; [7]): 50.1 µM | Kd (TX1BP3 PDZ; [3]): 0.891 µM

EKQAKGDTEF [CACYBP]
Kd (SNX27 PDZ): 209 µM

SCRIB
Difference log2 (HaCat cell extract preys; bait SCRIB_1 PDZ vs MBP): 13.0145 | Ratio SCRIB_1/MBP (HaCat cell extract preys; [11]): 8274.77 | Difference log2 ([1]; bait SCRIB_1 PDZ vs MBP): 8.3787 | Ratio SCRIB_1/MBP [1, 11]: 332.843 | Difference log2 ([1]; bait SCRIB_2 PDZ vs MBP): 8.333 | Ratio SCRIB_2/MBP [1, 2]: 322.542 | Difference (HeLa cell extract preys; bait SCRIB_2 PDZ (biotinylated MBP-PDZ) vs MBP control): 6.449 | Ratio (HeLa cell extract preys; bait SCRIB_2 PDZ vs MBP control): 87.3698

IQREDQETAV [DGKZ]
Kd (SCRIB2 PDZ; holdup affinity of the PBM peptide of the named protein, sheet PBMcomplexome, lower sub-table, 3.5 appears to be the floor for no detectable binding, read-out: affinity of PBM to SCRIB_2 (pKd) (converted)): 13.8 µM | Kd (DLG1_1 PDZ; holdup affinity of the PBM peptide of the named protein, sheet PBMcomplexome, lower sub-table, 3.5 appears to be the floor for no detectable binding, read-out: affinity of PBM to DLG1_1 (pKd) (converted)): 18.6 µM | Kd (SNX27 PDZ; [8]): 1 µM | Kd (SCRIB_1 PDZ; holdup affinity of the PBM peptide of the named protein, sheet PBMcomplexome, lower sub-table, 3.5 appears to be the floor for no detectable binding, read-out: affinity of PBM to SCRIB_1 (pKd) (converted)): 19.5 µM | Kd (DLG1_2 PDZ; [9]): 6.92 µM | Kd (TX1BP3 PDZ; [10]): 66.1 µM

VKPQVSESKL [ACOT8]
Kd (SCRIB2 PDZ; [4]): 302 µM | Kd (SNX27 PDZ): 4.57 µM | Kd (SCRIB_1 PDZ; [6]): 47.9 µM

CC(C)C[C@H](NC(=O)[C@H](CCC(N)=O)NC(=O)[C@@H](NC(=O)[C@H](CCC(=O)O)NC(=O)[C@H](CCC(=O)O)NC(=O)[C@H](CCCNC(=N)N)NC(=O)[C@H](CO)NC(=O)[C@H](CC(=O)O)NC(=O)[C@H](CCC(N)=O)NC(=O)CNC(=O)CCC(=O)NCCCOCCOCCOCCCNC(=O)CCCC[C@@H]1SC[C@@H]2NC(=O)N[C@@H]21)[C@@H](C)O)C(=O)O [KCNT2] ({X1-Suc}-GQDSREETQL-OH)
Kd (MAGI2_2 PDZ): 248 µM | Kd (DLG4_3 PDZ): 241 µM

IDNDTESTAL [ARHGAP17]
Kd (SCRIB2 PDZ; [4]): 245 µM | Kd (SNX27 PDZ): 10.7 µM | Kd (SCRIB_1 PDZ; [6]): 12.3 µM
